Measured values taken from patent publication EP0335369A2, “New anthracycline derivatives and processes for the preparation of the same” (priority 1988, dated 1989).
Converted amounts (≈) assume the structure as drawn. Read-outs that look alike come from different tables or passages of the source.

Key:
Leukemia L-1210 cells [1] = experiment: Test 1: antitumor activity against leukemia induced in CDF1 mice by Leukemia L-1210 cells (life-span increase); type: in vivo; conditions: intraperitoneally once per day for 9 consecutive days, observation 60 days
Procedure: Antitumor activities against leukemia in CDF, mice as induced by mouse leukemia, Leukemia L-1210 cells
After an elapsed time of 24 hours, a compounds of the formula (I) of this invention to be tested was administered intraperitoneally for 9 consecutive days once per day. Observation was made for 60 days, where survival days of each mouse tested were recorded. In comparison with the control test wherein mice were treated with the administration of physiological saline alone, the increase (%) in the life-span of the treated mice was calculated as T/C %, where T is the mean survival days of the treated animals and C is the mean survival days of the untreated control animals. For the comparison, daunomycin and adriamycin were also tested in the same manner.

[2] = Solubility in phosphate buffer solution of pH 7.4 at room temperature; type: physicochemical; conditions: for solubility: room temperature
[3] = test system: mouse leukemia P 388/S (sensitive); experiment: Test 2: growth inhibition of cultured mouse leukemia cells, 72 hours incubation; type: cell-based; conditions: P 388/S cells
Procedure: (§1) 7-O-(2,6-Dideoxy-2-fluoro-«-L-mannopyranosyl)adriamycinone 14-O-hemipimelate, which is a compounds according to this invention, was then added at varying concentrations. The incubation of the cells was thereafter continued for 72 hours to measure the 50% inhibitory concentration (ICso, ng/m t) of the test compound against the growth of the tunmor cells.

P388/ADR (resistant) = experiment: as above; type: cell-based; conditions: P 388/ADR cells
Procedure: as §1

Leukemia L-1210 cells [4] = experiment: Test 3: antitumor activity against leukemia induced in CDF1 mice by Leukemia L-1210 cells (procedure of Test 1 repeated); type: in vivo; conditions: intraperitoneally once per day for 9 consecutive days, observation 60 days
Procedure: Antitumor activities against leukemia in CDF1 mice as induced by mouse leukemia, Leukemia L-1210 cells
To evaluate the antitumor effects of the compounds of the formula (I') according to the sixth aspect of this invention against experimental tumors in animals, the procedure of Test 1 given hereinbefore is repeated. Thus, CDF1 mice were intraperitoneally transplanted with cells of Leukemia L-1210 (at a dose of 1 x 10^5 cells/mouse). After an elapsed time of 24 hours from the tumor transplantation, a test compound of the formula (I') of the sixth aspect invention to be evaluated was administered intraperitoneally for 9 consecutive days once per day. Observation was made for 60 day, where survival days of each mouse tested were recorded. In comparison with the control test wherein mice were treated with the administration of physiological saline alone, the increase (%) in the life-span of the treated mice was calculated as T/C %, where T is the mean survival days of the treated animals and C is the mean survival days of the untreated control animals. For the comparison, daunomycin and adriamycin were also tested in the same manner.

[5] = aqueous buffer, compounds (Ic), phosphate buffer solution of pH 7.4 (0.05 M KH2PO4-NaOH), read-out: Solubility
[6] = aqueous buffer, compounds (I'-c) or (I'-d), phosphate buffer solution of pH 7.4 (0.05M KH2PO4-NaOH), read-out: Solubility

Molecule: COc1cccc2c1C(=O)c1c(O)c3c(c(O)c1C2=O)C[C@@](O)(C(=O)COC(=O)CCCCCC(=O)O)C[C@@H]3O[C@@H]1O[C@@H](C)[C@H](O)[C@@H](O)[C@H]1F [Example 9]
- % Increase in life-span (T/C, %) (Leukemia L-1210 cells [1]; Dose 0.15 mg/kg/day): 123%
- % Increase in life-span (T/C, %) (Leukemia L-1210 cells [1]; Dose 0.3 mg/kg/day): 274%
- % Increase in life-span (T/C, %) (Leukemia L-1210 cells [1]; Dose 0.6 mg/kg/day): >329%
- % Increase in life-span (T/C, %) (Leukemia L-1210 cells [1]; Dose 1.25 mg/kg/day): >346%
- % Increase in life-span (T/C, %) (Leukemia L-1210 cells [1]; Dose 2.5 mg/kg/day): >686%
- % Increase in life-span (T/C, %) (Leukemia L-1210 cells [1]; Dose 5 mg/kg/day): >463%
- solubility [2, 5]: 32 mg/mL (≈ 45.4 mM)
- IC50 ([3]; Mus musculus, P388/S, read-out: IC50 (ng/mℓ) P 388/S): 0.3 ng/mL (≈ 4.26e-07 mM)
- IC50 (P388/ADR (resistant); Mus musculus, P388/ADR, read-out: IC50 (ng/mℓ) P 388/ADR): 39.8 ng/mL (≈ 5.65e-05 mM)

Molecule: C[C@@H]1O[C@@H](O[C@H]2C[C@](O)(C(=O)COC(=O)CCCCC(=O)O)Cc3c(O)c4c(c(O)c32)C(=O)c2ccccc2C4=O)[C@H](F)[C@H](O)[C@@H]1O [Example 17, 4-demethoxy-7-O-(2,6-dideoxy-2-fluoro-α-L-talopyranosyl)adriamycinone 14-0-hemiadipate]
- solubility [2, 6]: 6 mg/mL (≈ 9.08 mM)
- % Increase in life-span (T/C, %) (Leukemia L-1210 cells [4]; Dose 0.04 mg/kg/day): 99%
- % Increase in life-span (T/C, %) (Leukemia L-1210 cells [4]; Dose 0.08 mg/kg/day): 99%
- % Increase in life-span (T/C, %) (Leukemia L-1210 cells [4]; Dose 0.15 mg/kg/day): 130%
- % Increase in life-span (T/C, %) (Leukemia L-1210 cells [4]; Dose 0.3 mg/kg/day): 166%
- % Increase in life-span (T/C, %) (Leukemia L-1210 cells [4]; Dose 0.6 mg/kg/day): 242%
- % Increase in life-span (T/C, %) (Leukemia L-1210 cells [4]; Dose 1.25 mg/kg/day): > 296%

Molecule: 4-demethoxy-7-O-(2,6-dideoxy-2-fluoro-α-L-talopyranosyl)adriamycinone 14-0-hemisuberate [Example 19]
- solubility ([2]; compounds (I'-c) or (I'-d), phosphate buffer solution of pH 7.4 (0.05M KH2PO4-NaOH)): <1 mg/mL
- solubility in the phosphate buffer solution (in words) ([2]; phosphate buffer solution (0.05 M KH2PO4-NaOH) at pH 7.4): scarcely soluble
- % Increase in life-span (T/C, %) (Leukemia L-1210 cells [4]; Dose 0.04 mg/kg/day): 93%
- % Increase in life-span (T/C, %) (Leukemia L-1210 cells [4]; Dose 0.08 mg/kg/day): 96%
- % Increase in life-span (T/C, %) (Leukemia L-1210 cells [4]; Dose 0.15 mg/kg/day): 138%
- % Increase in life-span (T/C, %) (Leukemia L-1210 cells [4]; Dose 0.3 mg/kg/day): 175%
- % Increase in life-span (T/C, %) (Leukemia L-1210 cells [4]; Dose 0.6 mg/kg/day): 245%
- % Increase in life-span (T/C, %) (Leukemia L-1210 cells [4]; Dose 1.25 mg/kg/day): 158%

Molecule: C[C@@H]1O[C@@H](O[C@H]2C[C@](O)(C(=O)COC(=O)CCCCCC(=O)O)Cc3c(O)c4c(c(O)c32)C(=O)c2ccccc2C4=O)[C@H](F)[C@H](O)[C@H]1O [Example 11, 7-O-(2,6-dideoxy-2-fluoro-a-L-mannopyranosyl)-4-demethoxyadriamycinone 14-0-hemipimelate]
- % Increase in life-span (T/C, %) (Leukemia L-1210 cells [1]; Dose 0.15 mg/kg/day): 121%
- % Increase in life-span (T/C, %) (Leukemia L-1210 cells [1]; Dose 0.3 mg/kg/day): >363%
- % Increase in life-span (T/C, %) (Leukemia L-1210 cells [1]; Dose 0.6 mg/kg/day): 175%
- % Increase in life-span (T/C, %) (Leukemia L-1210 cells [1]; Dose 1.25 mg/kg/day): 111%
- solubility [2, 5]: < 1 mg/mL

Molecule: COc1cccc2c1C(=O)c1c(O)c3c(c(O)c1C2=O)C[C@@](O)(C(=O)COC(=O)CCCCCCC(=O)O)C[C@@H]3O[C@@H]1O[C@@H](C)[C@H](O)[C@@H](O)[C@H]1F [Example 10, 7-O-(2,6-dideoxy-2-fluoro-α-L-mannopyranosyl)adriamycinone 14-0-hemisuberate]
- solubility [2, 5]: 30 mg/mL (≈ 41.7 mM)

Molecule: COc1cccc2c1C(=O)c1c(O)c3c(c(O)c1C2=O)C[C@@](O)(C(=O)COC(=O)CCC(=O)O)C[C@@H]3O[C@@H]1O[C@@H](C)[C@H](O)[C@@H](O)[C@H]1F [Example 6, 7-O-(2,6-dideoxy-2-fluoro-α-L-mannopyranosyl)adriamycinone 14-0-hemisuccinate]
- solubility [2, 5]: 25 mg/mL (≈ 37.7 mM)

Molecule: COc1cccc2c1C(=O)c1c(O)c3c(c(O)c1C2=O)C[C@@](O)(C(=O)COC(=O)CCCCCC(=O)O)C[C@@H]3O[C@@H]1O[C@@H](C)[C@@H](O)[C@@H](O)[C@H]1F [Referential compound, 7-O-(2,6-dideoxy-2-fluoro-«-L-talopyranosyl)-adriamycinone 14-0-hemipimelate, reference compound]
- IC50 (ng/mℓ) P 388/S [3]: 3.3 ng/mL (≈ 4.68e-06 mM)
- IC50 (ng/mℓ) P 388/ADR (P388/ADR (resistant)): 485 ng/mL (≈ 0.000688 mM)

Molecule: COc1cccc2c1C(=O)c1c(O)c3c(c(O)c1C2=O)C[C@@](O)(C(=O)COC(=O)CCCCC(=O)O)C[C@@H]3O[C@@H]1O[C@@H](C)[C@H](O)[C@@H](O)[C@H]1F [Example 8, 7-0-(2,6-dideoxy-2-fluoro-a-L-mannopyranosyl)adriamycinone 14-0-hemiadipate]
- solubility [2, 5]: 32 mg/mL (≈ 46.3 mM)

Molecule: CCCCC(=O)OCC(=O)[C@]1(O)Cc2c(O)c3c(c(O)c2[C@@H](O[C@@H]2O[C@@H](C)[C@@H](O)[C@@H](O)[C@H]2F)C1)C(=O)c1ccccc1C3=O [Example 14, 4-demothoxy-7-O-(2,6-dideoxy-2-fluoro-α-L-talopyranosyl)adriamycinone 14-0-valerate]
- solubility [2, 6]: < 1 mg/mL
